Experiment [1] addresses T1, Type-B CCK receptor (Cavia porcellus, UniProt H0VZC5).
T1 construct: Cortical and pancreatic membranes were prepared as described; from tissue; host or cells: guinea pig cerebral cortex membranes
T1 sequence (H0VZC5 1-426): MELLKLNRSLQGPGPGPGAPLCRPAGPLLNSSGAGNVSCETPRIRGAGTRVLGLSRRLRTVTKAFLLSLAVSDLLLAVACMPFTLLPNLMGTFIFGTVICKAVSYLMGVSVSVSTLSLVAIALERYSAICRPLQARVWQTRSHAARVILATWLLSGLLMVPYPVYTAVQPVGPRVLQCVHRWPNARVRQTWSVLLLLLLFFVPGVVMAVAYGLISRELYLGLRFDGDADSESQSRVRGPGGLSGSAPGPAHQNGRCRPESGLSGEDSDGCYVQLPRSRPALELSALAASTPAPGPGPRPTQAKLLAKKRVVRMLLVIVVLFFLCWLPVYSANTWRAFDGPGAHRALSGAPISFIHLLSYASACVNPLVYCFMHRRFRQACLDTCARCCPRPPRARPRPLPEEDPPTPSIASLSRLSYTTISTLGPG
The experiment is described as follows: Radioligand binding of [125I]BH-CCK-8 in guinea pig cerebral cortical membrane preparations. In outline:
(§1)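 Membranes came from male guinea pig pancreas (type A) or cerebral cortex (type B) and were resuspended in pH 7.4 HEPES-EGTA-salt buffer containing bestatin and phosphoramidon. Test compounds competed with [125I]BH-CCK-8 in 0.1% BSA: cortex 150 min at 30 °C, pancreas 150 min at 37 °C. Reactions ended by filtration; IC50 from Hill analysis.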

In experiment [2] the target is T2, Type-A CCK receptor (Cavia porcellus, UniProt Q63931).
T2 construct: Cortical and pancreatic membranes were prepared as described; from tissue; host or cells: guinea pig pancreas membranes
T2 sequence (Q63931 1-430): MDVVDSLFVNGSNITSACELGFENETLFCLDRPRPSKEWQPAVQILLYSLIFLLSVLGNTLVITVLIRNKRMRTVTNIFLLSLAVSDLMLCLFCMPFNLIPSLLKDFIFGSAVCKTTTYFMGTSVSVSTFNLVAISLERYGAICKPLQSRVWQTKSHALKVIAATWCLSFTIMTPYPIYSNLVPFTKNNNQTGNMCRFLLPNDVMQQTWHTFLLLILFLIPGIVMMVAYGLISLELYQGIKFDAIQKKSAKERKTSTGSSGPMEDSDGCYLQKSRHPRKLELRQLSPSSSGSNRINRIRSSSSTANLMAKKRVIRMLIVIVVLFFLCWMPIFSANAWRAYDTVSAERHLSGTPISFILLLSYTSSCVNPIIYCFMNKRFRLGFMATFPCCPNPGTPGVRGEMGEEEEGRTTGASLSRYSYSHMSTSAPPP
The experiment is described as follows: Radioligand binding of [125I]BH-CCK-8 in guinea pig pancreatic membrane preparations. The method, boiled down: as §1

Where [3] appears, read: IC50 (nM) 125I-BH-CCK-8 Type-B receptor, guinea pig cortical membranes, 30° C., 150 minutes.
Setting [4] is: IC50 (nM) 125I-BH-CCK-8 Type-A receptor, guinea pig pancreatic membranes, 37° C., 150 min.
The mark [5] stands for this setting: guinea pig cortical membranes, 30° C., 150 minutes, read-out: IC50 (nM) 125I-BH-CCK-8 Type-B receptor.
[6] abbreviates: guinea pig pancreatic membranes, 37° C., 150 min, read-out: IC50 (nM) 125I-BH-CCK-8 Type-A receptor.

Structures can show the parent of a compound that is named as a salt. Where two headings read alike, the source gives them in different places. *1 amine or outer side, *2 acyl side, *3 side chain or, on linkers, in order; H or OH if unused. Where a SMILES comes first, the peptide text is derived from it. Side-chain parts run from the residue outwards. [ ]: non-standard residue; d: D form. The star is where a group is joined. NMeW = CN[C@@H](Cc1c[nH]c2ccccc12)C(=O)O; 1Nal = N[C@@H](Cc1cccc2ccccc12)C(=O)O; Desaminotyrosyl = O=C(CCc1ccc(O)cc1)*; Butanoyl(3,3-Me2) = CC(C)(C)CC(=O)*; Isobutyloxycarbonyl = CC(C)COC(=O)*; NMeF = CN[C@@H](Cc1ccccc1)C(=O)O; NMeD = CN[C@@H](CC(=O)O)C(=O)O; NH(2-Me-phenyl) = Cc1ccccc1N*; X5 = O=C(CCc1ccc(O)c(I)c1)*; X1 = O=C(C=Cc1ccc(O)cc1)*; Cbz = O=C(OCc1ccccc1)*; X15 = Clc1cccc(N*)c1Cl; Boc = CC(C)(C)OC(=O)*; CO = O=C([*:1])[*:2]; Tfa = O=C(C(F)(F)F)*; NHPh = c1ccc(N*)cc1; X2 = C1CN(CCO*)CCO1; Ms = CS(=O)(=O)*; Moc = COC(=O)*

As usually defined, the IC50 is the concentration needed to halve the response being measured. Turning to `Cc1ccccc1NC(=O)NCCCC[C@H](NC(=O)[C@H](Cc1c[nH]c2ccccc12)NC(=O)Nc1ccccc1)C(=O)N[C@@H](CC(=O)O)C(=O)N(C)[C@@H](Cc1ccccc1)C(N)=O` [Example 84, Phenylaminocarbonyl-Trp-Lys(ε-N-(2-methylphenyl)aminocarbonyl)-Asp-(NMe)PheNH2] ({NHPh-CO}-WK([CO-NH(2-Me-phenyl)])D[NMeF]-NH2), the figures for the IC50 in experiment [1] (setting [3]) and in experiment [2] (setting [4]) were 3000 nM and 3 nM, respectively.

On to `Cc1ccccc1NC(=O)NCCCC[C@H](NC(=O)[C@H](Cc1c[nH]c2ccccc12)NC(=O)CC(C)(C)C)C(=O)N[C@@H](CC(=O)O)C(=O)N(C)[C@@H](Cc1ccccc1)C(N)=O` [Example 87, t-Butylacetyl-Trp-Lys(ε-N-(2-methylphenyl)aminocarbonyl)-Asp-(NMe)PheNH2] ({Butanoyl(3,3-Me2)}-WK([CO-NH(2-Me-phenyl)])D[NMeF]-NH2), for which the IC50 in experiment [1] (setting [3]) amounted to 8400 nM; in experiment [2] (setting [4]), 4.5 nM.

`Cc1ccccc1NC(=O)NCCCC[C@H](NC(=O)[C@H](Cc1c[nH]c2ccccc12)NC(=O)OC(C)(C)C)C(=O)N[C@@H](CC(=O)OCCN1CCOCC1)C(=O)N(C)[C@@H](Cc1ccccc1)C(N)=O` [Example 120, t-BOC-Trp-Lys(ε-N-(2-methylphenyl)aminocarbonyl)-Asp(β-2-(1-morpholino)ethyl)-(NMe)PheNH2] (Boc-WK([CO-NH(2-Me-phenyl)])D(X2)[NMeF]-NH2): the figures for the IC50 in experiment [1] and in experiment [2] were 13000 nM and 26 nM, respectively.

On to `Cc1ccccc1NC(=O)NCCCC[C@H](NC(=O)C1Cc2c[nH]c3cccc(c23)CC(=O)N1)C(=O)N[C@@H](CC(=O)O)C(=O)N(C)[C@@H](Cc1ccccc1)C(N)=O` (stereo partly drawn) [Example 112, Ctp-Lys(ε-N-(2-methylphenyl)aminocarbonyl)-Asp-(NMe)PheNH2], for which the IC50 in experiment [1] (setting [3]) was 900 nM; in experiment [2] (setting [4]) it was 6.3 nM.

Regarding `CC(C)(C)OC(=O)N[C@@H](Cc1c[nH]c2ccccc12)C(=O)N[C@@H](CCCCNC(=O)CCc1ccc(O)cc1)C(=O)N[C@@H](CC(=O)O)C(=O)N[C@@H](Cc1cccc2ccccc12)C(N)=O` [Example 21, t-BOC-Trp-Lys(ε-N-(3-(4-hydroxyphenyl)propionyl))-Asp-α-NalNH2] (Boc-WK(Desaminotyrosyl)D[1Nal]-NH2), the IC50 in experiment [1] (setting [5]) came out at 1200 nM; in experiment [2] (setting [6]), 33 nM.

Consider `COC(=O)N[C@@H](Cc1c[nH]c2ccccc12)C(=O)N[C@@H](CCCCNC(=O)Nc1ccccc1C)C(=O)N(C)[C@@H](CC(=O)O)C(=O)N(C)[C@@H](Cc1ccccc1)C(N)=O` [Example 124] (Moc-WK([CO-NH(2-Me-phenyl)])[NMeD][NMeF]-NH2), for which the IC50 in experiment [1] (setting [3]) amounted to 2600 nM; in experiment [2] (setting [4]) it was 4.5 nM.

`Cc1ccccc1NC(=O)NCCCC[C@H](NC(=O)[C@H](Cc1c[nH]c2ccccc12)NC(=O)CC(C)(C)C)C(=O)N(C)[C@@H](CC(=O)O)C(=O)N[C@@H](Cc1ccccc1)C(N)=O` [Example 88B, t-butylacetyl-Trp-Lys(ε-N-(2-methylphenyl)aminocarbonyl)-(NMe)Asp-PheNH2] ({Butanoyl(3,3-Me2)}-WK([CO-NH(2-Me-phenyl)])[NMeD]F-NH2): the figures for the IC50 in experiment [1] (setting [3]) and in experiment [2] (setting [4]) were over 10000 nM and 3.7 nM, respectively.

For the compound `CC(=O)N[C@@H](Cc1c[nH]c2ccccc12)C(=O)N[C@@H](CCCCNC(=O)Nc1ccccc1C)C(=O)N[C@@H](CC(=O)O)C(=O)N(C)[C@@H](Cc1ccccc1)C(N)=O` [Example 85, Acetyl-Trp-Lys(ε-N-(2-methylphenyl)aminocarbonyl)-Asp-(NMe)PheNH2] (Ac-WK([CO-NH(2-Me-phenyl)])D[NMeF]-NH2), the IC50 in experiment [1] (setting [3]) came out at 10000 nM; in experiment [2] (setting [4]), 5.8 nM.

For `CN[C@@H](Cc1c[nH]c2ccccc12)C(=O)N[C@@H](CCCCNC(=O)Nc1ccccc1C)C(=O)N(C)[C@@H](CC(=O)O)C(=O)N[C@@H](Cc1cccc2ccccc12)C(N)=O` [Example 100, (NMe)Trp-Lys(ε-N-(2-methylphenyl)aminocarbonyl)-(NMe)Asp-α-NalNH2] (H-[NMeW]K([CO-NH(2-Me-phenyl)])[NMeD][1Nal]-NH2), the IC50 in experiment [1] (setting [3]) amounted to 12000 nM; in experiment [2] (setting [4]), 8 nM.

Turning to `CC(C)(C)OC(=O)N[C@@H](Cc1c[nH]c2ccccc12)C(=O)N[C@@H](CCCCNC(=O)Nc1cccc(Cl)c1Cl)C(=O)N[C@@H](CC(=O)O)C(=O)N[C@@H](Cc1ccccc1)C(N)=O` [Example 125, t-BOC-Trp-Lys(ε-N-(2,3-dichlorophenyl)aminocarbonyl)-Asp-PheNH2] (Boc-WK([CO-X15])DF-NH2), the IC50 in experiment [1] (setting [5]) was over 10000 nM; in experiment [2] (setting [6]) it was 2.8 nM.

`Cc1ccccc1NC(=O)NCCCC[C@H](NC(=O)[C@H](Cc1c[nH]c2ccccc12)NC(=O)C(F)(F)F)C(=O)N(C)[C@@H](CC(=O)O)C(=O)N[C@@H](Cc1ccccc1)C(N)=O` [Example 88A, trifluoroacetyl-Trp-Lys(ε-N-(2-methylphenyl)aminocarbonyl)-(NMe)Asp-PheNH2] (Tfa-WK([CO-NH(2-Me-phenyl)])[NMeD]F-NH2): the half-inhibitory concentration (IC50) in experiment [1] (setting [3]) is over 10000 nM; in experiment [2] (setting [4]), 4.4 nM.

For the compound `Cc1ccccc1NC(=O)NCCCC[C@H](NC(=O)[C@H](Cc1c[nH]c2ccccc12)NC(=O)OCC(C)C)C(=O)N[C@@H](CC(=O)O)C(=O)N(C)[C@@H](Cc1ccccc1)C(N)=O` [Example 77, Isobutyloxycarbonyl-Trp-Lys(ε-N-(2-methylphenyl)aminocarbonyl)-Asp-(NMe)PheNH2] (Isobutyloxycarbonyl-WK([CO-NH(2-Me-phenyl)])D[NMeF]-NH2), the IC50 in experiment [1] (setting [3]) is 6500 nM; in experiment [2] (setting [4]), 2.3 nM.

Consider `Cc1ccccc1NC(=O)NCCCC[C@H](NC(=O)[C@H](Cc1c[nH]c2ccccc12)NC(=O)OCc1ccccc1)C(=O)N[C@@H](CC(=O)O)C(=O)N(C)[C@@H](Cc1ccccc1)C(N)=O` [Example 76, Benzyloxycarbonyl-Trp-Lys(ε-N-(2-methylphenyl)aminocarbonyl)-Asp-(NMe)PheNH2] (Cbz-WK([CO-NH(2-Me-phenyl)])D[NMeF]-NH2), for which the IC50 in experiment [1] is 6400 nM; in experiment [2] it was 18 nM.

For the compound `CC(=O)N[C@@H](Cc1c[nH]c2ccccc12)C(=O)N[C@@H](CCCCNC(=O)Nc1ccccc1C)C(=O)N(C)[C@@H](CC(=O)O)C(=O)N[C@@H](Cc1ccccc1)C(N)=O` [Example 86, Acetyl-Trp-Lys(ε-N-(2-methylphenyl)aminocarbonyl)-(NMe)Asp-PheNH2] (Ac-WK([CO-NH(2-Me-phenyl)])[NMeD]F-NH2), the figures for the IC50 in experiment [1] (setting [3]) and in experiment [2] (setting [4]) were over 10000 nM and 6.7 nM, respectively.

For `Cc1ccccc1NC(=O)NCCCC[C@H](NC(=O)CCc1c[nH]c2ccccc12)C(=O)N[C@@H](CC(=O)O)C(=O)N(C)[C@@H](Cc1ccccc1)C(N)=O` [Example 70, 3-(Indol-3-yl)propionyl-Lys(ε-N-(2-methylphenyl)aminocarbonyl)-Asp-(NMe)PheNH2], the IC50 was over 10000 nM in experiment [1] (setting [5]) and 13 nM in experiment [2] (setting [6]).

On to `Cc1ccccc1NC(=O)NCCCC[C@H](NC(=O)[C@H](Cc1c[nH]c2ccccc12)NC(=O)CCc1ccc(O)c(I)c1)C(=O)N[C@@H](CC(=O)O)C(=O)N(C)[C@@H](Cc1ccccc1)C(N)=O` [Example 93, (3-(4-Hydroxy-3-iodophenyl)propionyl)-Trp-Lys(ε-N-(2-methylphenyl)aminocarbonyl)-Asp-(NMe)PheNH2] (X5-WK([CO-NH(2-Me-phenyl)])D[NMeF]-NH2), for which the IC50 in experiment [1] worked out at 4200 nM; in experiment [2], 4.6 nM.

Take `CN(C(=O)[C@H](CCCCNC(=O)C=Cc1ccc(O)cc1)NC(=O)[C@H](Cc1c[nH]c2ccccc12)NC(=O)OC(C)(C)C)[C@@H](CC(=O)O)C(=O)N[C@@H](Cc1ccccc1)C(N)=O` [Example 71, t-BOC-Trp-Lys(ε-N-(4-hydroxycinnamoyl))-(NMe)Asp-PheNH2] (Boc-WK(X1)[NMeD]F-NH2): the IC50 is 5800 nM in experiment [1] (setting [5]) and 4.9 nM in experiment [2] (setting [6]).

Turning to `Cc1ccccc1NC(=O)NCCCC[C@H](NC(=O)[C@H](Cc1c[nH]c2ccccc12)NS(C)(=O)=O)C(=O)N[C@@H](CC(=O)O)C(=O)N(C)[C@@H](Cc1ccccc1)C(N)=O` [Example 95, Methylsufonamyl-Trp-Lys(ε-N-(2-methylphenyl)aminocarbonyl)-Asp-(NMe)PheNH2] (Ms-WK([CO-NH(2-Me-phenyl)])D[NMeF]-NH2), the IC50 in experiment [1] (setting [5]) is over 10000 nM; in experiment [2] (setting [6]), 47 nM.

The record behind these values is US5270302A, “Derivatives of tetrapeptides as CCK agonists” (priority 1991, dated 1993).
